The values that follow come from patent publication US10093675B2, “6,8-disubstituted-9-(heterocyclyl)purines, compositions containing these derivatives and their use in cosmetic and medicinal applications” (USTAV EXPERIMENTALNI BOTANIKY AV CR, V.V.I., priority 2014, dated 2018).

Molecules are shown by their SMILES. Read-outs that look alike come from different tables or passages of the source. A value given as a limit tells only on which side of the number the result lay.

Series [1] has as its system breast carcinoma cell line MCF-7. Nature of the series: In vitro cytotoxic activity (Calcein AM), MCF-7. Type of series: cell-based, human. As to conditions: read-out: Cell line tested/IC50 (μmol/L) MCF7. Put shortly:
(§1)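 Calcein fluorescence, read 1 hour after adding Calcein AM at 1 μg/ml final, measured viability following 72 hours of compound treatment at 37° C. Compounds were tested as six 3-fold dilutions from usually 100 μM in triplicate. GI50 was the concentration reducing conversion by 50%.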

In series [2] the test system is erytroid leukemia cell line K-562. Nature of the series: In vitro cytotoxic activity (Calcein AM), K-562. Type of series: cell-based, human. The note with it: read-out: Cell line tested/IC50 (μmol/L) K-562. Put shortly: as §1
The subject of series [3] is T-lymphoblastic leukemia cell line CEM. The experiment in a line: In vitro cytotoxic activity (Calcein AM), CEM. Format: cell-based, human. The note with it: 72 hours, read-out: Cell line tested/IC50 (μmol/L) CEM. A digest of the protocol:
as §1

Series [4] has as its system cytokinin-dependent tobacco callus Nicotiana tabacum L. cv. Wisconsin 38. The experiment in a line: Plant cell division: growth of cytokinin-dependent tobacco callus. Format: cell-based. The note with it: for Activity (%); (s.d.): relative activity at concentration with highest activity, 10^−6 M kinetin set at 100%; for Concentration with highest activity (mol/l): tobacco callus fresh weight increase after four weeks, tested 10^−8 M to 10^−4 M.

The next series has as its system melanoma cell line G-361. The experiment in a line: In vitro cytotoxic activity (Calcein AM), G-361. Format: cell-based, human. The note with it: read-out: Cell line tested/IC50 (μmol/L) G-361. A digest of the protocol: as §1
In series [5] the test system is Human diploid fibroblast BJ. Nature of the series: In vitro cytotoxic activity (MTT). Format: cell-based. The note with it: 72 hours incubation; concentration causing 20% decrease in mitochondrial dehydrogenase activity.
For series [6], the system named is osteosarcoma cell line HOS. Nature of the series: In vitro cytotoxic activity (Calcein AM), HOS. Type of series: cell-based, human. The note with it: 72 hours, read-out: Cell line tested/IC50 (μmol/L) HOS. Put shortly: as §1
Series [7] relates to Salmonella typhimurium histidien auxotrophs TA98 and TA100. Nature of the series: Ames test. Format: cell-based. As to conditions: 2.5 to 5000 μg/plate; presence and absence of Aroclor-induced rat liver S9. Put shortly:
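Strains TA98 and TA100 exposed to compounds in DMSO at 2.5, 5.0, 15, 50, 500, 1500 and 5000 μg/plate following standard Ames/Maron protocols.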
A general note: The Ames test uses bacterial strains that need an amino acid and regain growth without it when mutated back.

Series [8] deals with normal diploid fibroblasts BJ. The experiment in a line: In vitro cytotoxic activity (Calcein AM), BJ. Type of series: cell-based, human. As to conditions: 72 hours, read-out: Cell line tested/IC50 (μmol/L) BJ. Put shortly: as §1

As to `C/C(=C\CNc1ncnc2c1nc(Br)n2C1CCCCO1)CO` (stereo not shown) [Compound 24, (E)-8-Bromo-6-(4-hydroxy-3-methylbut-2-en-1-ylamino)-9-(tetrahydropyran-2-yl)-9H-purine], the IC50 is greater than 50 µmol/L in [1] (Homo sapiens, MCF7, 72 hours); greater than 50 µmol/L in [2] (Homo sapiens, K562, 72 hours); greater than 50 µmol/L in series [3] (Homo sapiens); greater than 50 µmol/L in the series on melanoma cell line G-361 (Homo sapiens, G-361, 72 hours); greater than 50 µmol/L in series [6] (Homo sapiens); greater than 50 µmol/L in series [8] (Homo sapiens, Fibroblast). Further, the “Activity (%); (s.d.)” value in [4] is listed as 128 (±8) %. Moreover, in series [5], the “GI20” value is greater than 100 µM. Besides, in [7], the mutagenic response result is “no positive mutagenic responses”.
For `Fc1cccc(CNc2ncnc3c2nc(Br)n3C2CCCCO2)c1` (stereo not shown) [Compound 26], the IC50 (in series [1] (72 hours); in series [2] (72 hours); in series [3]; in the series on melanoma cell line G-361 (72 hours); in series [6]; in [8]) was greater than 50 µmol/L in each case. For the same compound, in series [4], the “Activity (%); (s.d.)” value was 117 (±4) %. In addition, the “Concentration with highest activity (mol/l)” value (from here on “Concentration”) in series [4] is reported as 10^−6-10^−5 mol/l. Also, the “GI20” value in series [5] is greater than 100 µM. For the same compound, in series [7], the mutagenic response entry was “no positive mutagenic responses”.
Consider `Fc1ccc(CNc2ncnc3c2nc(Br)n3C2CCCCO2)cc1F` (stereo not shown) [Compound 27], for which the IC50 (in [1] (72 hours); in series [2] (72 hours); in series [3]; with melanoma cell line G-361 (72 hours); in [6]; in series [8]) was greater than 50 µmol/L throughout. Moreover, in [4], the “Activity (%); (s.d.)” value is on record as 115 (±4) %. For the same compound, the “Concentration” value in [4] is on record as 10^−6-10^−5 mol/l. Further, the “GI20” value in series [5] was greater than 100 µM. In addition, the mutagenic response result in [7] is recorded as “no positive mutagenic responses”.
Turning to `C/C(=C\CNc1ncnc2c1nc(Cl)n2C1CCCO1)CO` (stereo not shown) [Compound 64], the IC50 (in [1] (72 hours); in series [2] (72 hours); in series [3]; in the series on melanoma cell line G-361 (72 hours); in series [6]; in [8]) was greater than 50 µmol/L in each case. Also, the “Activity (%); (s.d.)” value in series [4] is reported as 130 (±10) %. Also, the “Concentration” value in series [4] was 10^−6-10^−4 mol/l. For the same compound, the “GI20” value in series [5] is greater than 100 µM. Also, in series [7], the mutagenic response result was “no positive mutagenic responses”.
For `COc1cccc(CNc2ncnc3c2nc(Cl)n3C2CCCO2)c1` (stereo not shown) [Compound 69], the IC50 (in series [1] (72 hours); in series [2] (72 hours); in series [3]; with melanoma cell line G-361 (72 hours); in [6]; in [8]) was greater than 50 µmol/L throughout. The “Activity (%); (s.d.)” value in [4] is 111 (±5) %. The “Concentration” value in series [4] is 10^−6-10^−4 mol/l. The “GI20” value in [5] is greater than 100 µM. The mutagenic response entry in [7] is reported as “no positive mutagenic responses”.
For the compound `COc1nc2c(NCc3ccco3)ncnc2n1C1CCCCO1` (stereo not shown) [Compound 124, 6-Furfurylamino-8-methoxy-9-(tetrahydropyran-2-yl)-9H-purine], the IC50 in series [1] (Homo sapiens, MCF7, 72 hours) is greater than 50 µmol/L; in [2] (Homo sapiens, K562, 72 hours), greater than 50 µmol/L; in series [3] (Homo sapiens) it was greater than 50 µmol/L; with melanoma cell line G-361 (Homo sapiens, G-361, 72 hours), greater than 50 µmol/L; in [6] (Homo sapiens), greater than 50 µmol/L; in [8] (Homo sapiens, Fibroblast) it was greater than 50 µmol/L. In series [4], the “Activity (%); (s.d.)” value is on record as 105 (±2) %. Also, the “GI20” value in series [5] was greater than 100 µM. In addition, the mutagenic response entry in series [7] is recorded as “no positive mutagenic responses”.
Consider `CSc1nc2c(NCc3ccco3)ncnc2n1C1CCCCO1` (stereo not shown) [Compound 145, 6-Furfurylamino-8-methylsulfanyl-9-(tetrahydropyran-2-yl)-9H-purine], for which the IC50 in series [1] (Homo sapiens, MCF7, 72 hours) was greater than 50 µmol/L; in [2] (Homo sapiens, K562, 72 hours), greater than 50 µmol/L; in [3] (Homo sapiens), greater than 50 µmol/L; in the series on melanoma cell line G-361 (Homo sapiens, G-361, 72 hours), greater than 50 µmol/L; in series [6] (Homo sapiens) it was greater than 50 µmol/L; in series [8] (Homo sapiens, Fibroblast), greater than 50 µmol/L. The “Activity (%); (s.d.)” value in [4] is reported as 103 (±5) %. Moreover, the “GI20” value in [5] was greater than 100 µM. In addition, the mutagenic response entry in series [7] is given as “no positive mutagenic responses”.
